Data reported in patent publication US10765755B1, “Preparation and characterization of methylene blue nanoparticles for Alzheimer's disease and other tauopathies” (University of South Florida, priority 2013, dated 2020).

Experiments:
[1] = tested on: endogenous Tau in human neuroblastoma SHSY-5Y cells; assay: Tau levels by immunoblotting in SHSY-5Y cells; format: cell-based; conditions: 5 μM and 10 μM, 24 hours, immunoblot
Description: (§1) Endogenous Tau expressing human neuroblastoma SHSY5Y cells and Hela cells stably overexpressing wild-type human tau were maintained in OptiMEM media supplemented with fetal bovine serum and antibiotic solution as described previously. In six-well plates, cells were treated with control or MB-NPs for 24 hours. Cells were harvested and processed for immunoblotting as described previously.
(§2) To test the functionality of newly generated NPs, two different cell culture-based AD models were utilized. Endogenously tau expressing SHSHY neuronal cells and stably tau overexpressing HeLa cells were treated with 5 μM and 10 μM of MB-NPs, coated MB-NPs, control NPs, vehicle, and/or drug MB-solution for 24 hours. Cells were harvested, and samples were analyzed for tau levels by immunoblotting (FIG. 4).

[2] = tested on: human Tau stably over-expressed in HeLa cells; assay: Tau levels by immunoblotting in HeLa cells overexpressing tau; format: cell-based; conditions: HeLa cells over-expressing tau, 5 μM and 10 μM, 24 hours, immunoblot
Description: as §1, §2

[3] = tested on: co-culture of rat brain endothelial 4 (RBE4) and C6 astrocytoma cells; assay: In vitro blood-brain barrier Transwell permeation assay; format: in vitro ADME; conditions: 10 μM, 0, 3, 6 and 24 hours, UV 600 nm, n=3
Description: Transwell Permeable Supports (CORNING) with a 0.4 μm pore size were purchased to investigate the permeability of MB nanoparticles across the blood-brain barrier (BBB) (FIG. 5). Each side was coated with 0.1% rat tail collagen I solution diluted from the purchased 100 mg solution (Collagen I, rat tail, 100 mg, BD BIOSCIENCES), left under the hood to adhere to the support for 1 hour, and washed with […] of 1×PBS after aspiration of the remaining collagen solution. The media used was a 1:1 solution of Ham's F10:MEM media (CELLGRO) supplemented with 10% fetal bovine serum (FBS) (INVITROGEN), 1% penicillin and streptomycin (CELLGRO), 0.4 mL of 1 ng/mL human recombinant diluted basic fibroblast growth factor (bFGF) (BD Biosciences), 5 mL of HEPES buffer (FISHER), and 2 mL of a 200 mM stock of L-glutamine (MEDIATECH). 1.5 mL of media was added surrounding the support, and 0.5 mL was added inside the support. This was left to incubate in the incubator (37° C. and 5% CO2) for 24 hours.
After 24 hours, the media was aspirated from the plates. […]
Subsequently, the media was aspirated and replaced with equal amounts of 1% FBS experimental media. […] The samples were quantified by UV spectrometry in the SYNERGY H4 plate reader (BIOTEK INSTRUMENTS Inc.) at a wavelength of 600 nm. Data was quantified in triplicates and averaged (n=3).

CN(C)c1ccc2nc3ccc(=[N+](C)C)cc-3sc2c1 [MB solution, Methylene blue]
Reduction in tau level (in words) [1]: reduce tau levels slightly higher at 10 μM compared to 5 μM | Reduction in tau level (in words) [2]: reduce tau levels slightly higher at 10 μM compared to 5 μM | Permeation across simulated BBB (in words) [3]: remained relatively constant
